In patent US11292796B2 (SIGNAL PHARMACEUTICALS, LLC, priority 2008, dated 2022):

Molecular target: T1, mTOR (Homo sapiens, UniProt P42345)
T1 construct: purchased Invitrogen PR8683A
Experiment: mTOR HTR-FRET assay
Assay type: biochemical
Conditions: read-out: Act. Level (IC50 in mTor HTR-FRET assay)
Method: The following is an example of an assay that can be used to determine the mTOR inhibitory activity of a test compound. Heteroaryl Compounds were dissolved in DMSO and prepared as 10 mM stocks and diluted appropriately for the experiments. Reagents were prepared as follows:
“Simple TOR buffer” (used to dilute high glycerol TOR fraction): 10 mM Tris pH 7.4, 100 mM NaCl, 0.1% Tween-20, 1 mM DTT. Invitrogen mTOR (cat #PR8683A) was diluted in this buffer to an assay concentration of 0.200 μg/mL.
To 20 μL of the Simple mTor buffer is added 0.5 μL of test compound in DMSO. To initiate the reaction 5 μL of ATP/Substrate solution was added to 20 μL of the Simple TOR buffer solution (control) and to the compound solution prepared above.

T1 sequence (P42345 1360-2549 limits assumed): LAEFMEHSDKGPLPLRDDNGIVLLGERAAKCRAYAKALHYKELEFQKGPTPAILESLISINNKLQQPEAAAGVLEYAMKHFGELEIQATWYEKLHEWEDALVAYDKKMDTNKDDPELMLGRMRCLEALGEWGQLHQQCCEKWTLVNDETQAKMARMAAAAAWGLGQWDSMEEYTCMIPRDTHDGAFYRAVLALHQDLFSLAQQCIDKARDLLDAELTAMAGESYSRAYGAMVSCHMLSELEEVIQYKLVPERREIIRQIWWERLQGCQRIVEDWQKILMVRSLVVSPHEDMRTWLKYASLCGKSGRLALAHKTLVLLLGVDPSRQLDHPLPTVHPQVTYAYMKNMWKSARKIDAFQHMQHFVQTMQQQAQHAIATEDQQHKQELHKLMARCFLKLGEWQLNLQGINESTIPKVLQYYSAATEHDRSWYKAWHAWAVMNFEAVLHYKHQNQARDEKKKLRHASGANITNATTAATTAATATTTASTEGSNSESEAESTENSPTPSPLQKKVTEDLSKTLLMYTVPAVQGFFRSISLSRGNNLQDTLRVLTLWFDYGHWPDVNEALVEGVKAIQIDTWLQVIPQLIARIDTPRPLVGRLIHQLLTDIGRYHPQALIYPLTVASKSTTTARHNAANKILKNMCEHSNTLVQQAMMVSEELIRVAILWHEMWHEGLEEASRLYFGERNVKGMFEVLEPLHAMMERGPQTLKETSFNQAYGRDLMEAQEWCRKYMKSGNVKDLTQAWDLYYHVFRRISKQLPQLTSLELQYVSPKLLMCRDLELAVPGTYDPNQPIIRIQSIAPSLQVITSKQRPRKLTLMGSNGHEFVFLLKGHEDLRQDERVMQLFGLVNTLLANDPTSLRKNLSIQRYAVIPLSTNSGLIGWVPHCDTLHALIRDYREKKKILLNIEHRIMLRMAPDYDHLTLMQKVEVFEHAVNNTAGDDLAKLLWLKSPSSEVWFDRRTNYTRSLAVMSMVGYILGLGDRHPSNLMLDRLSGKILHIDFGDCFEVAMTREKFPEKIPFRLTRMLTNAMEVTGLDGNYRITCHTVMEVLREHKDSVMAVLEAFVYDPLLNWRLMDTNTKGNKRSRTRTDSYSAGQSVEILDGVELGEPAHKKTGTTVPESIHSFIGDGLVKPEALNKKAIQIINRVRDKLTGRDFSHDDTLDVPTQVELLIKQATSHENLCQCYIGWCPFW

Row | Structure (SMILES) | IC50 [nM]
1 | CO[C@H]1CC[C@H](CN2CC(=O)Nc3ncc(-c4ccc(-c5nc[nH]n5)nc4)nc32)CC1 [Example 5] | 0.005 to 250
2 | CO[C@H]1CC[C@@H](CN2CC(=O)Nc3ncc(-c4ccc(-c5nc[nH]n5)nc4)nc32)CC1 [Example 7] | 0.005 to 250
3 | CO[C@H]1CC[C@H](N2CC(=O)Nc3ncc(-c4ccc(-c5nc[nH]n5)nc4)nc32)CC1 [Example 12] | 0.005 to 250
4 | COCCN1CC(=O)Nc2ncc(-c3ccc(-c4nc[nH]n4)nc3)nc21 [Example 16] | 0.005 to 250
5 | O=C1CN(C2CCOCC2)c2nc(-c3ccc(-c4nc[nH]n4)nc3)cnc2N1 [Example 21, 6-(6-(1H-1,2,4-triazol-3-yl)pyridin-3-yl)-4-(tetrahydro-2H-pyran-4-yl)-3,4-dihydropyrazino[2,3-b]pyrazin-2(1H)-one] | 0.005 to 250
6 | CCN1CC(=O)Nc2ncc(-c3ccc(-c4nc[nH]n4)nc3)nc21 [Example 22, 6-(6-(1H-1,2,4-triazol-3-yl)pyridin-3-yl)-4-ethyl-3,4-dihydropyrazino[2,3-b]pyrazin-2(1H)-one] | 0.005 to 250
7 | Cc1cc(-c2nc[nH]n2)c(F)cc1-c1cnc2c(n1)N([C@H]1CC[C@H](O)CC1)CC(=O)N2 [Example 23, 6-(5-fluoro-2-methyl-4-(1H-1,2,4-triazol-3-yl)phenyl)-4-(trans-4-hydroxycyclohexyl)-3,4-dihydropyrazino[2,3-b]pyrazin-2(1H)-one] | 0.005 to 250
8 | Cc1cc(-c2nc[nH]n2)c(F)cc1-c1cnc2c(n1)N(C1CCOCC1)CC(=O)N2 [Example 24, 6-(5-fluoro-2-methyl-4-(1H-1,2,4-triazol-3-yl)phenyl)-4-(tetrahydro-2H-pyran-4-yl)-3,4-dihydropyrazino[2,3-b]pyrazin-2(1H)-one] | 0.005 to 250
9 | Cc1cc(-c2nc[nH]n2)c(F)cc1-c1cnc2c(n1)N(C(C)C)CC(=O)N2 [Example 25, 6-(5-fluoro-2-methyl-4-(1H-1,2,4-triazol-3-yl)phenyl)-4-isopropyl-3,4-dihydropyrazino[2,3-b]pyrazin-2(1H)-one] | 0.005 to 250
10 | CCN1CC(=O)Nc2ncc(-c3cc(F)c(-c4nc[nH]n4)cc3C)nc21 [Example 26, 4-ethyl-6-(5-fluoro-2-methyl-4-(1H-1,2,4-triazol-3-yl)phenyl)-3,4-dihydropyrazino[2,3-b]pyrazin-2(1H)-one] | 0.005 to 250
11 | Cc1c(-c2cnc3c(n2)N(C2CCOCC2)CC(=O)N3)ccc(-c2nc[nH]n2)c1F [Example 27, 6-(3-fluoro-2-methyl-4-(1H-1,2,4-triazol-3-yl)phenyl)-4-(tetrahydro-2H-pyran-4-yl)-3,4-dihydropyrazino[2,3-b]pyrazin-2(1H)-one] | 0.005 to 250
12 | CO[C@H]1CC[C@@H](N2CC(=O)Nc3ncc(-c4ccc(-c5nc[nH]n5)c(F)c4C)nc32)CC1 [Example 28, 6-(3-fluoro-2-methyl-4-(1H-1,2,4-triazol-3-yl)phenyl)-4-(cis-4-methoxycyclohexyl)-3,4-dihydropyrazino[2,3-b]pyrazin-2(1H)-one] | 0.005 to 250
13 | CO[C@H]1CC[C@H](N2CC(=O)Nc3ncc(-c4ccc(-c5nc[nH]n5)c(F)c4C)nc32)CC1 [Example 29, 6-(3-fluoro-2-methyl-4-(1H-1,2,4-triazol-3-yl)phenyl)-4-(trans-4-methoxycyclohexyl)-3,4-dihydropyrazino[2,3-b]pyrazin-2(1H)-one] | 0.005 to 250
14 | COCCN1CC(=O)Nc2ncc(-c3cnc(-c4nc[nH]n4)cc3C)nc21 [Example 30, 4-(2-methoxyethyl)-6-(4-methyl-6-(1H-1,2,4-triazol-3-yl)pyridin-3-yl)-3,4-dihydropyrazino[2,3-b]pyrazin-2(1H)-one] | 0.005 to 250
15 | O=C1CN(CCC2CCOCC2)c2nc(-c3cccc(-c4ncn[nH]4)c3)cnc2N1 [Example 31, 6-(3-(1H-1,2,4-triazol-5-yl)phenyl)-4-(2-(tetrahydro-2H-pyran-4-yl)ethyl)-3,4-dihydropyrazino[2,3-b]pyrazin-2(1H)-one] | 1000 to 10000
16 | COCCN1CC(=O)Nc2ncc(-c3cnc(C(N)=O)cc3C)nc21 [Example 32, 5-(8-(2-methoxyethyl)-6-oxo-5,6,7,8-tetrahydropyrazino[2,3-b]pyrazin-2-yl)-4-methylpicolinamide] | 0.005 to 250
17 | NC(=O)c1cccc(-c2cnc3c(n2)N(CCC2CCOCC2)CC(=O)N3)c1 [Example 33, 3-(6-oxo-8-(2-(tetrahydro-2H-pyran-4-yl)ethyl)-5,6,7,8-tetrahydropyrazino[2,3-b]pyrazin-2-yl)benzamide] | 500 to 1000

Row | Structure (SMILES) | IC50 [nM]
18 | N#Cc1cccc(-c2cnc3c(n2)N(CCC2CCOCC2)CC(=O)N3)c1 [Example 34, 3-(6-oxo-8-(2-(tetrahydro-2H-pyran-4-yl)ethyl)-5,6,7,8-tetrahydropyrazino[2,3-b]pyrazin-2-yl)benzonitrile] | 500 to 1000
19 | CO[C@H]1CC[C@H](N2CC(=O)Nc3ncc(-c4cnc(C(N)=O)cc4C)nc32)CC1 [Example 35, 5-(S-(trans-4-methoxycyclohexyl)-6-oxo-5,6,7,8-tetrahydropyrazino[2,3-b]pyrazin-2-yl)-4-methylpicolinamide] | 0.005 to 250
20 | O=C1CN(CCC2CCOCC2)c2nc(-c3cnc4nc[nH]c4c3)cnc2N1 [Example 36, 6-(1H-imidazo[4,5-b]pyridin-6-yl)-4-(2-(tetrahydro-2H-pyran-4-yl)ethyl)-3,4-dihydropyrazino[2,3-b]pyrazin-2(1H)-one] | 500 to 1000
21 | O=C1CN(CCC2CCOCC2)c2nc(-c3ccc4cn[nH]c4c3)cnc2N1 [Example 37, 6-(1H-indazol-6-yl)-4-(2-(tetrahydro-2H-pyran-4-yl)ethyl)-3,4-dihydropyrazino[2,3-b]pyrazin-2(1H)-one] | 1000 to 10000
22 | CO[C@H]1CC[C@@H](N2CC(=O)Nc3ncc(-c4ccc(-c5nnc[nH]5)nc4C)nc32)C1 [Example 38, 4-((1R,3S)-3-methoxycyclopentyl)-6-(2-methyl-6-(4H-1,2,4-triazol-3-yl)pyridin-3-yl)-3,4-dihydropyrazino[2,3-b]pyrazin-2(1H)-one] | 0.005 to 250
23 | CO[C@@H]1CC[C@H](N2CC(=O)Nc3ncc(-c4ccc(-c5nnc[nH]5)nc4C)nc32)C1 [Example 39, 4-((1S,3R)-3-methoxycyclopentyl)-6-(2-methyl-6-(4H-1,2,4-triazol-3-yl)pyridin-3-yl)-3,4-dihydropyrazino[2,3-b]pyrazin-2(1H)-one] | 0.005 to 250
24 | CO[C@@H]1CC[C@@H](N2CC(=O)Nc3ncc(-c4ccc(-c5nnc[nH]5)nc4C)nc32)C1 [Example 40, 4-((1R,3R)-3-methoxycyclopentyl)-6-(2-methyl-6-(4H-1,2,4-triazol-3-yl)pyridin-3-yl)-3,4-dihydropyrazino[2,3-b]pyrazin-2(1H)-one] | 0.005 to 250
25 | CO[C@H]1CC[C@H](N2CC(=O)Nc3ncc(-c4ccc(-c5nnc[nH]5)nc4C)nc32)C1 [Example 41, 4-((1S,3S)-3-methoxycyclopentyl)-6-(2-methyl-6-(4H-1,2,4-triazol-3-yl)pyridin-3-yl)-3,4-dihydropyrazino[2,3-b]pyrazin-2(1H)-one] | 0.005 to 250
26 | O=C1CN(CCC2CCOCC2)c2nc(-c3cnc4[nH]ccc4c3)cnc2N1 [Example 43, 6-(1H-pyrrolo[2,3-b]pyridin-5-yl)-4-(2-(tetrahydro-2H-pyran-4-yl)ethyl)-3,4-dihydropyrazino[2,3-b]pyrazin-2(1H)-one] | 0.005 to 250
27 | O=C1CN(CCC2CCOCC2)c2nc(-c3ccc4cc[nH]c4c3)cnc2N1 [Example 44, 6-(1H-indol-6-yl)-4-(2-(tetrahydro-2H-pyran-4-yl)ethyl)-3,4-dihydropyrazino[2,3-b]pyrazin-2(1H)-one] | 250 to 500
28 | CO[C@H]1CC[C@@H](CN2CC(=O)Nc3ncc(-c4ccc(-c5nnc[nH]5)nc4C)nc32)C1 [Example 46, 4-(((1R,3S)-3-methoxycyclopentyl)methyl)-6-(2-methyl-6-(4H-1,2,4-triazol-3-yl)pyridin-3-yl)-3,4-dihydropyrazino[2,3-b]pyrazin-2(1H)-one] | 0.005 to 250
29 | CO[C@@H]1CC[C@H](CN2CC(=O)Nc3ncc(-c4ccc(-c5nnc[nH]5)nc4C)nc32)C1 [Example 47, 4-(((1S,3R)-3-methoxycyclopentyl)methyl)-6-(2-methyl-6-(4H-1,2,4-triazol-3-yl)pyridin-3-yl)-3,4-dihydropyrazino[2,3-b]pyrazin-2(1H)-one] | 0.005 to 250
30 | Cc1c(-c2cnc3c(n2)N(CCC2CCOCC2)CC(=O)N3)ccc(-c2nnc[nH]2)c1F [Example 48, 6-(3-fluoro-2-methyl-4-(4H-1,2,4-triazol-3-yl)phenyl)-4-(2-(tetrahydro-2H-pyran-4-yl)ethyl)-3,4-dihydropyrazino[2,3-b]pyrazin-2(1H)-one] | 0.005 to 250
31 | COCCN1CC(=O)Nc2ncc(-c3ccc(-c4nnc[nH]4)c(F)c3C)nc21 [Example 49, 6-(3-fluoro-2-methyl-4-(4H-1,2,4-triazol-3-yl)phenyl)-4-(2-methoxyethyl)-3,4-dihydropyrazino[2,3-b]pyrazin-2(1H)-one] | 0.005 to 250
32 | Cc1cc(-c2nnc[nH]2)ncc1-c1cnc2c(n1)N(CC1CCOCC1)C(C)(C)C(=O)N2 [Example 50, 3,3-dimethyl-6-(4-methyl-6-(4H-1,2,4-triazol-3-yl)pyridin-3-yl)-4-((tetrahydro-2H-pyran-4-yl)methyl)-3,4-dihydropyrazino[2,3-b]pyrazin-2(1H)-one] | 0.005 to 250
33 | CO[C@H]1CC[C@@H](N2CC(=O)Nc3ncc(-c4ccc(C(C)(C)O)nc4)nc32)C1 [Example 51, 6-(6-(2-hydroxypropan-2-yl)pyridin-3-yl)-4-((1R,3S)-3-methoxycyclopentyl)-3,4-dihydropyrazino[2,3-b]pyrazin-2(1H)-one] | 0.005 to 250
